Laboratory results published in patent publication US20220324835A1 (Nurix Therapeutics, Inc., priority 2018, published 2022).

How the values were obtained:
Cbl-b (residues 36-427) = Cbl-b (residues 36-427) (Homo sapiens, UniProt Q13191); experiment: Cbl-b binding assay (SPR, Biacore T200); conditions: 20° C., 1:1 binding model
Outline: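 Affinities derived from global 1:1 steady-state or kinetic fits of double-referenced, solvent-corrected SPR data, 20 °C, NeutrAvidin-capture chip. Compound series (top 100 or 50 μM, 8–10 points) injected 50 s, 90–180 s dissociation. Asterisked values used 50 mM instead of 100 mM NaCl and 30 nM Src kinase.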

Cbl-b [1] = target: T1, Cbl-b (Homo sapiens, UniProt Q13191); experiment: Cbl-b inhibition assay (Cbl-b activity assay, FRET, Biological Example 1; 100 mM NaCl, 60 nM Src kinase); format: biochemical; conditions: upper bound stated in text lists; read-out: IC50 values in the Cbl-b inhibition assay of Biological Example 1
Outline: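 Steps: Src kinase phosphorylates N-terminal biotinylated Avi-tagged Cbl-b; phosphorylated Cbl-b binds Bodipy-fluorescein ubiquitin-loaded UbcH5B; streptavidin-terbium on Cbl-b sits close to the fluorescein label, producing FRET. Inhibitors block UbcH5B-Ub binding.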

Cbl-b [2] = target: T1, Cbl-b; experiment: Cbl-b activity assay (Cbl-b inhibition assay), TR-FRET of Cbl-b interaction with UbcH5B-Ub; format: biochemical
Outline: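 TR-FRET readout of Cbl-b binding to Bodipy-fluorescein N-terminally labeled Ub conjugated to UbcH5B C85K, measured with compound present. After compound incubation, 60 nM Src kinase with 1 mM ATP and 5 mM MgCl2 (final) was added for 1.5 h, then a further 1 h incubation; asterisked values used 50 mM NaCl buffer and 30 nM Src.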

[3] = assay buffer with 100 mM NaCl, 60 nM Src kinase, read-out: Cbl-b activity IC50
[4] = * assay buffer containing 50 mM NaCl instead of 100 mM NaCl and 30 nM Src kinase instead of 60 nM, read-out: Cbl-b activity IC50 (μM)*

Chain of Cbl-b (residues 36-427) (Q13191 36-427): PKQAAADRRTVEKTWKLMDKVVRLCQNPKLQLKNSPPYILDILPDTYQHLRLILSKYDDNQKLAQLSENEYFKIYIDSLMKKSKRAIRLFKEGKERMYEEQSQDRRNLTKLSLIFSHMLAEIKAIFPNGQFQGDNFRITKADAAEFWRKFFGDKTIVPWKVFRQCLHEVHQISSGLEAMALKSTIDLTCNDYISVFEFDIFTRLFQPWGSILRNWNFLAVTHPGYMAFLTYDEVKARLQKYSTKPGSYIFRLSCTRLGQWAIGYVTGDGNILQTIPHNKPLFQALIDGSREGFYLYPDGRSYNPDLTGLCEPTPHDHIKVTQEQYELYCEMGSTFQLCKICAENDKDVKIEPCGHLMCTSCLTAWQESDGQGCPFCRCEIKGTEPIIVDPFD
T1 sequence (Q13191 36-427): as above

Row | SMILES | Kd (Cbl-b (residues 36-427)) [µM] | IC50 (Cbl-b [1]) [µM] | IC50 (Cbl-b [2]; [3]) [µM] | IC50 (Cbl-b [2]; [4]) [µM]
1 | Cc1cnc(C(=O)Nc2cccc([C@H](C)Sc3nncn3C)c2)cc1C1CC1 [Compound 53, (S)-4-cyclopropyl-5-methyl-N-(3-(1-((4-methyl-4H-1,2,4-triazol-3-yl)thio)ethyl)phenyl)picolinamide] | 3 to 10 | ≤ 10 | 3 to 10 | –
2 | CNc1cccc(C(=O)Nc2cccc([C@H](C)Sc3nncn3C)c2)c1 [Compound 47, (S)-N-(3-(1-((4-Methyl-4H-1,2,4-triazol-3-yl)thio)ethyl)phenyl)-3-(methylamino)benzamide] | 3 to 10 | ≤ 10 | 3 to 10 | –
3 | C[C@H](Sc1nncn1C)c1cccc(NC(=O)c2cccc(-c3ccn[nH]3)c2)c1 [Compound 44, (S)-N-(3-(1-((4-Methyl-4H-1,2,4-triazol-3-yl)thio)ethyl)phenyl)-3-(1H-pyrazol-5-yl)benzamide] | 3 to 10 | ≤ 10 | 3 to 10 | –
4 | C[C@H](Cc1nncn1C)c1cccc(NC(=O)c2cc(C(=O)N3CC(O)C(C)(C)C3)ccn2)c1 (stereo partly drawn) [Compound 239, 4-(4-hydroxy-3,3-dimethylpyrrolidine-1-carbonyl)-N-(3-((R)-1-(4-methyl-4H-1,2,4-triazol-3-yl)propan-2-yl)phenyl)picolinamide] | 0.1 to 0.3 | ≤ 10 | 1 to 3 | –
5 | C[C@H](Sc1nncn1C)c1ccnc(NC(=O)c2cccc(C(F)(F)F)n2)c1 [Compound 102b, (S)-N-(4-(1-((4-methyl-4H-1,2,4-triazol-3-yl)thio)ethyl)pyridin-2-yl)-6-(trifluoromethyl)picolinamide] | 1 to 3 | ≤ 10 | 1 to 3 | 1 to 3
6 | C[C@H](O)CNC(=O)c1ccnc(C(=O)Nc2cccc([C@H](C)Sc3nncn3C)c2)c1 [Compound 157, N^4-((S)-2-hydroxypropyl)-N^2-(3-((S)-1-((4-methyl-4H-1,2,4-triazol-3-yl)thio)ethyl)phenyl)pyridine-2,4-dicarboxamide] | 3 to 10 | ≤ 10 | 3 to 10 | –
7 | C[C@H](Cc1nncn1C)c1cccc(NC(=O)c2cc(C(=O)N3CCC(CO)C3)ccn2)c1 (stereo partly drawn) [Compound 245, 4-(3-(hydroxymethyl)pyrrolidine-1-carbonyl)-N-(3-((R)-1-(4-methyl-4H-1,2,4-triazol-3-yl)propan-2-yl)phenyl)picolinamide] | 3 to 10 | ≤ 10 | 1 to 3 | –
8 | C[C@H](Sc1nncn1C1CC1)c1cccc(NC(=O)c2cc3ccccc3cn2)c1 [Compound 99, (S)-N-(3-(1-((4-cyclopropyl-4H-1,2,4-triazol-3-yl)thio)ethyl)phenyl)isoquinoline-3-carboxamide] | 3 to 10 | ≤ 1 | 0.301 to 1 | 3 to 10
9 | CC(Cc1n[nH]cc1CO)c1cccc(N2Cc3c(cccc3C(F)(F)F)C2=O)c1 (centres unmarked) [Compound 271, 2-(3-(1-(4-(hydroxymethyl)-1H-pyrazol-3-yl)propan-2-yl)phenyl)-4-(trifluoromethyl)isoindolin-1-one] | 3 to 10 | ≤ 10 | 3 to 10 | –
10 | C[C@H](Sc1nncn1C)c1cccc(N2Cc3cc(Cl)ccc3C2=O)c1 [Compound 164, (S)-5-chloro-2-(3-(1-((4-methyl-4H-1,2,4-triazol-3-yl)thio)ethyl)phenyl)isoindolin-1-one] | 1 to 3 | ≤ 1 | 0.301 to 1 | –
11 | C[C@H](Sc1nncn1C)c1ccnc(NC(=O)c2ccc3ccccc3n2)c1 [Compound 112, (S)-N-(4-(1-((4-methyl-4H-1,2,4-triazol-3-yl)thio)ethyl)pyridin-2-yl)quinoline-2-carboxamide] | 3 to 10 | ≤ 1 | 0.301 to 1 | 1 to 3
12 | C[C@H](Cc1nncn1C)c1cccc(NC(=O)c2cc(C(=O)N[C@H]3CCNC3)ccn2)c1 [Compound 248, N2-(3-((R)-1-(4-methyl-4H-1,2,4-triazol-3-yl)propan-2-yl)phenyl)-N4-((s)-pyrrolidin-3-yl)pyridine-2,4-dicarboxamide] | 3 to 10 | ≤ 10 | 3 to 10 | –
13 | C[C@H](Sc1nncn1C)c1ccnc(NC(=O)c2cc(N3CC[C@H](O)C3)cc(C(F)(F)F)n2)c1 [Compound 126, 4-[(3S)-3-hydroxypyrrolidin-1-yl]-N-[4-[(1S)-1-[(4-methyl-1,2,4-triazol-3-yl)sulfanyl]ethyl]-2-pyridyl]-6-(trifluoromethyl)pyridine-2-carboxamide] | 3 to 10 | ≤ 10 | 1 to 3 | –
14 | C[C@H](Cc1nncn1C)c1cccc(NC(=O)c2cc(C(F)(F)F)ccn2)c1 [Compound 184, (R)-N-(3-(1-(4-methyl-4H-1,2,4-triazol-3-yl)propan-2-yl)phenyl)-4-(trifluoromethyl)picolinamide] | 3 to 10 | ≤ 10 | 1 to 3 | –
15 | C[C@H](Cc1nccn1C)c1cccc(NC(=O)c2cc(C(=O)N3CC[C@H](O)C3)ccn2)c1 [Compound 252a, 4-((S)-3-hydroxypyrrolidine-1-carbonyl)-N-(3-((R)-1-(1-methyl-1H-imidazol-2-yl)propan-2-yl)phenyl)picolinamide] | 3 to 10 | ≤ 10 | 1 to 3 | –
16 | Cc1cc(C(=O)Nc2cccc([C@H](C)Sc3nncn3C)c2)ncc1Cl [Compound 34, (S)-5-Chloro-4-methyl-N-(3-(1-((4-methyl-4H-1,2,4-triazol-3-yl)thio)ethyl)phenyl)picolinamide] | 1 to 3 | ≤ 0.5 | 0.301 to 1 | 0.301 to 1
17 | C[C@H](Sc1nncn1C)c1ccnc(NC(=O)c2cccc(S(F)(F)(F)(F)F)c2)c1 [Compound 116, N-[4-[(1S)-1-[(4-methyl-1,2,4-triazol-3-yl)sulfanyl]ethyl]-2-pyridyl]-3-(pentafluoro-λ^6-sulfanyl)benzamide] | 3 to 10 | ≤ 10 | 3 to 10 | –
18 | C[C@H](Sc1nncn1C)c1cccc(NC(=O)c2cc(C(=O)N3CC[C@@H](N(C)C)C3)ccn2)c1 [Compound 159, 4-((R)-3-(dimethylamino)pyrrolidine-1-carbonyl)-N-(3-((S)-1-((4-methyl-4H-1,2,4-triazol-3-yl)thio)ethyl)phenyl)picolinamide] | 3 to 10 | ≤ 10 | 3 to 10 | –
19 | Cc1cncc(C(=O)Nc2cccc([C@H](C)Sc3nncn3C)c2)n1 [Compound 82, (S)-6-methyl-N-(3-(1-((4-methyl-4H-1,2,4-triazol-3-yl)thio)ethyl)phenyl)pyrazine-2-carboxamide] | 3 to 10 | ≤ 10 | 1 to 3 | –
20 | C[C@H](Cc1nncn1C)c1cccc(NC(=O)c2cc(C(=O)N3CC[C@@H](C#N)C3)ccn2)c1 [Compound 238, 4-((R)-3-cyanopyrrolidine-1-carbonyl)-N-(3-((R)-1-(4-methyl-4H-1,2,4-triazol-3-yl)propan-2-yl)phenyl)picolinamide] | 1 to 3 | ≤ 10 | 1 to 3 | –
21 | C[C@H](Cc1nncn1C)c1cccc(NC(=O)c2cc(C(=O)N3C[C@@H]4[C@@H](O)[C@@H]4C3)ccn2)c1 [Compound 234, 4-[(1R,5S,6R)-6-hydroxy-3-azabicyclo[3.1.0]hexane-3-carbonyl]-N-[3-[(2R)-1-(4-methyl-4H-1,2,4-triazol-3-yl)propan-2-yl]phenyl]pyridine-2-carboxamide] | 1 to 3 | ≤ 10 | 1 to 3 | –
22 | Cc1cnc(C(=O)Nc2cccc([C@H](C)Sc3nncn3C)c2)cc1C(F)(F)F [Compound 52, (S)-5-methyl-N-(3-(1-((4-methyl-4H-1,2,4-triazol-3-yl)thio)ethyl)phenyl)-4-(trifluoromethyl)picolinamide] | > 10 | ≤ 10 | 3 to 10 | –
23 | C=CCC(Sc1nncn1C)c1cccc(NC(=O)c2cc3ccccc3cn2)c1 (centres unmarked) [Compound 135, N-[3-[1-[(4-methyl-1,2,4-triazol-3-yl)sulfanyl]but-3-enyl]phenyl]isoquinoline-3-carboxamide] | > 10 | ≤ 10 | 1 to 3 | 3 to 10
24 | CCOc1cccc(C(=O)Nc2cccc([C@H](C)Sc3nncn3C)c2)n1 [Compound 90, 6-Ethoxy-N-[3-[(1S)-1-[(4-methyl-1,2,4-triazol-3-yl)sulfanyl]ethyl]phenyl]pyridine-2-carboxamide] | 3 to 10 | ≤ 10 | 1 to 3 | –
25 | C[C@@H](Cc1nncn1C)c1cccc(NC(=O)c2cccc(C(F)(F)F)n2)c1 [Compound 183b, (S)-N-(3-(1-(4-methyl-4H-1,2,4-triazol-3-yl)propan-2-yl)phenyl)-6-(trifluoromethyl)picolinamide] | 3 to 10 | ≤ 10 | 0.1 to 0.3 | –
26 | CC(Sc1nncn1C)c1cc(N)nc(N2Cc3c(cccc3C(F)(F)F)C2=O)c1 (centres unmarked) [Compound 175, 2-[6-amino-4-[1-[(4-methyl-1,2,4-triazol-3-yl)sulfanyl]ethyl]-2-pyridyl]-4-(trifluoromethyl)isoindolin-1-one] | 3 to 10 | ≤ 10 | 3 to 10 | –
